US10487071B2, “Bis-triazole compounds with anti-biofilm and anti-corrosion properties” (Université de Toulon, priority 2015, dated 2019)
Where two headings read alike, the source gives them in different places.

How the values were obtained:
Polaribacter sp. (TC5) [1] = test: Toxicity test, strain TC5; type: cell-based; conditions: for CC50: read-out: LC50 (necessary concentration to kill 50% of the bacteria)
From the text: (§1) Polaribacter sp. (TC5) was isolated in June 2010 in the Military Harbor of Toulon (Mediterranean Sea, France) as described in F. Brian-Jaisson, A. Ortalo-Magné, L. Guentas-Dombrowsky, F. Armougom, Y. Blache, M. Molmeret, Microb. Ecol., 2014, 68, 94-110.

[2] = Gravimetry (weight loss), corrosion inhibition; conditions: mild steel in 1N HCl
Experimental: The corrosion rates were determined by electrochemical impedance spectroscopy measurements and gravimetry.
Weight loss measurements were performed on 2.5×2.0×0.1 cm rectangular mild steel coupons. The mild steel coupons were immersed into non-de-aerated HCl 1N solution in absence and presence of different concentrations of compounds of general formula (I). After the elapsed time, the coupons were taken out, washed, dried and weighed accurately. Experiments were duplicated.
Weight loss experiments were done to confirm the corrosion inhibitive properties of AS164.
The inhibition efficiency, IE (%), was estimated from the weight loss experiments using the following equation:
[formula] wherein CR^o and CR are respectively the corrosion rate in the absence and presence of AS164.

[3] = test system: Pseudoalteromonas ulvae (TC14); test: Toxicity test, strain TC14; type: cell-based
From the text: (§2) Pseudoalteromonas ulvae (TC14) was isolated in June 2010 in the Military Harbor of Toulon (Mediterranean Sea, France) as described in F. Brian-Jaisson, A. Ortalo-Magné, L. Guentas-Dombrowsky, F. Armougom, Y. Blache, M. Molmeret, Microb. Ecol., 2014, 68, 94-110.

[4] = test system: Pseudoalteromonas ulvae (TC14); test: Anti-adhesion test, strain TC14; type: cell-based; conditions: for inhibition of the adhesion of bacterial strain TC14 / activity at 200 µM: 200 μM; for activity at 200 µM / EC50: Pseudoalteromonas ulvae; for activity at 200 µM: 15 h; for EC50: read-out: EC50 (effective concentration to inhibit 50% of the adhesion)
Experimental: (§3) Bacterial strains were grown on Väätänen nine-salts solution (VNSS). When the stationary phase was reached, the bacterial suspension was centrifuged. Cells were then diluted in sterile artificial sea water (ASW) and introduced in microtiter plates (sterile black PS; Nunc, Fisher Scientific, France) with the tested compound (at eight concentrations in three replicates) in the presence of three controls: (i) non-specific staining control, (ii) adhesion control, and (iii) positive control. The maximum percentage of solvent (DMSO 2%) used to dilute the tested compound was also tested in triplicate as additional control. After incubation during an optimized adhesion time (moderately 15 h), non-adhered bacteria were eliminated and adhered cells were quantified after SYTO 61 (1 μM) staining. A percentage of inhibition was calculated per well. A sigmoid dose-response curve was obtained by plotting the percentage of inhibition as a function of the log of tested compound concentration, after mean (n=3) and standard deviation (SD) calculation per triplicate for each concentration. EC50 values were then calculated for each compound.
as §2

Paracoccus sp. (4M6) [5] = test: Anti-adhesion test, strain 4M6; type: cell-based; conditions: Paracoccus; for activity at 200 µM: 15 h, read-out: % of adhesion at 200 μM, 4M6; for EC50: read-out: EC50 (effective concentration to inhibit 50% of the adhesion), 4M6
Experimental: (§4) The anti-adhesion bioassays and toxicity tests are adapted from those disclosed in M. Camps, J.-F. Briand, L. Guentas-Dombrowsky, G. Culioli, A. Bazire and Y. Blache, Mar. Poll.
as §3

Shewanella sp. (TC11) [6] = test: Toxicity test, strain TC11; type: cell-based
From the text: (§5) Shewanella sp. (TC11) was isolated in June 2010 in the Military Harbor of Toulon (Mediterranean Sea, France) as described in F. Brian-Jaisson, A. Ortalo-Magné, L. Guentas-Dombrowsky, F. Armougom, Y. Blache, M. Molmeret, Microb. Ecol., 2014, 68, 94-110.

Shewanella sp. (TC11) [7] = test: Anti-adhesion test, strain TC11; type: cell-based; conditions: for activity at 200 µM: 15 h; for EC50: read-out: EC50 (effective concentration to inhibit 50% of the adhesion), strain TC11
Experimental: as §3, §5

[8] = test system: Pseudoalteromonas lipolytica (TC8); test: Anti-adhesion test, strain TC8; type: cell-based; conditions: Pseudoalteromonas lipolytica; for activity at 200 µM: 15 h, read-out: % of adhesion at 200 μM, TC8; for EC50: read-out: EC50 (effective concentration to inhibit 50% of the adhesion), TC8
Experimental: as §4, §3

[9] = test system: marine bacterial strains (TC14, TC8, 4M6, TC5 and TC11); test: Toxicity test, summary over the strains; type: cell-based; conditions: comparison with reference biocides
From the text: (§6) In examples 64 and 65, the following marine bacterial strains are used.

Polaribacter sp. (TC5) [10] = test: Anti-adhesion test, strain TC5; type: cell-based; conditions: for activity at 200 µM: 15 h; for EC50: read-out: EC50 (effective concentration to inhibit 50% of the adhesion)
Experimental: as §3, §1

Paracoccus sp. (4M6) [11] = test: microbe, parasite or virus in culture; conditions: for CC50: Paracoccus, read-out: LC50 (necessary concentration to kill 50% of the bacteria), 4M6; for IS: LC50/EC50 (selectivity index), 4M6: strain 4M6
From the text: as §4
(§7) After growth on VNSS, bacterial strains were harvested during the exponential phase. The microtiter plates (sterile transparent PS; Nunc, Fisher Scientific) were filled as described in the Anti-adhesion test method using VNSS instead of ASW to allow bacterial growth. The growth was followed by measuring the turbidity (OD600 nm) every hour during 6 or 7 hours. Then, resazurin (50 μM) was added in all the wells, and fluorescence was measured after 2 h to quantify the percent of bacterial viability. The same methodology used with SYTO 61 was applied to calculate a percent of viability after resazurin staining.

[12] = test system: Pseudoalteromonas lipolytica (TC8); test: microbe, parasite or virus in culture; conditions: for CC50: Pseudoalteromonas lipolytica, read-out: LC50 (necessary concentration to kill 50% of the bacteria), TC8; for IS: LC50/EC50 (selectivity index), TC8: strain TC8
From the text: as §4, §7

[13] = test system: marine bacterial strains (TC14, TC8, 4M6, TC5 and TC11); test: Anti-adhesion test, summary over the strains; type: cell-based; conditions: for EC50 compared with TBTO/ZINEB: comparison with reference biocides
Experimental: as §3, §6

[14] = read-out: inhibition of the adhesion of at least four marine bacterial strains
[15] = read-out: inhibition of the adhesion of at least two marine bacterial strains
[16] = 200 μM, strain TC11, read-out: % of adhesion at 200 μM, TC11

SMILES | IS: LC50/EC50 (selectivity index), TC5 (Polaribacter sp. (TC5) [1]) | CC50 (Polaribacter sp. (TC5) [1]) | IE % ([2]; 0.1 ppm) | IE % ([2]; 0.3 ppm) | IE % ([2]; 0.5 ppm) | IE % ([2]; 2 ppm) | IE % ([2]; 10 ppm) | IS: LC50/EC50 (selectivity index), TC14 [3] | LC50 (necessary concentration to kill 50% of the bacteria), TC14 [3] | activity at 200 µM [4] | EC50 [4] | activity at 200 µM (Paracoccus sp. (4M6) [5]) | EC50 (Paracoccus sp. (4M6) [5]) | IS: LC50/EC50 (selectivity index), TC11 (Shewanella sp. (TC11) [6]) | LC50 (necessary concentration to kill 50% of the bacteria), TC11 (Shewanella sp. (TC11) [6]) | EC50 (Shewanella sp. (TC11) [7]) | activity at 200 µM [8] | EC50 [8] | toxicity by LC50 values compared with TBTO/ZINEB [9] | inhibition at 200 µM [13, 15] | other results
CN(C)CCOc1ccc(CCn2cc(-c3ccc(-c4cn(CCc5ccc(OCCN(C)C)c(Br)c5)nn4)cc3)nn2)cc1Br [AS162, 2-(4-(2-(4-(4-(1-(4-(2-(dimethylamino)ethoxy)-3-bromophenethyl)-1H-1,2,3-triazol-4-yl)phenyl)-1H-1,2,3-triazol-1-yl)ethyl)-2-bromophenoxy)-N,N-dimethylethanamine] | 24.6 | 382 µM | 48.81% | 93.35% | 92.92% | 97.73% | 97.30% | 265.7 | 257.7 µM | 0% | 0.97 ± 0.8 µM | 10.9 ± 8.1% | 5.1 ± 1.04 µM | 26.5 | 334.3 µM | 12.6 ± 5.1 µM | 14% | 5.1 ± 1 µM | less toxic than TBTO and ZINEB | ≥ 65% | inhibition of the adhesion of bacterial strain TC14 [4]: totally inhibit; activity at 200 µM (Shewanella sp. (TC11) [7]; read-out: % of adhesion at 200 μM, TC11): 4.3 ± 7.5%; activity at 200 µM (Polaribacter sp. (TC5) [10]): 21.5 ± 6.6%; EC50 (Polaribacter sp. (TC5) [10]): 15.5 ± 0.1 µM; CC50 (Paracoccus sp. (4M6) [11]): 97.6 µM; IS: LC50/EC50 (selectivity index), 4M6 (Paracoccus sp. (4M6) [11]): 19.2; CC50 [12]: 66.1 µM; IS: LC50/EC50 (selectivity index), TC8 [12]: 12.9; EC50 compared with TBTO/ZINEB [13]: comparable to that of TBTO and lower than that of ZINEB; inhibition at 200 µM [13, 14]: ≥ 85%
CN(C)CCOc1ccc(CCn2cc(COCc3cn(CCc4ccc(OCCN(C)C)c(Br)c4)nn3)nn2)cc1Br [AS163, 2-(4-(2-(4-(((1-(4-(2-(dimethylamino)ethoxy)-3-bromophenethyl)-1H-1,2,3-triazol-4-yl)methoxy)methyl)-1H-1,2,3-triazol-1-yl)ethyl)-2-bromophenoxy)-N,N-dimethylethanamine] |  |  | 82.24% | 89.36% | 94.54% | 96.52% | 97.07% |  |  | 34.8 ± 2.7% | 91.8 ± 17.9 µM | 40.4 ± 7.8% | 146 ± 81.9 µM |  |  |  | 34.6 ± 5.1% | 102 ± 46.2 µM |  | ≥ 65% | 
CN(C)CCCOc1ccc(CCn2cc(-c3ccc(-c4cn(CCc5ccc(OCCCN(C)C)c(Br)c5)nn4)cc3)nn2)cc1Br [AS172, 3-(4-(2-(4-(4-(1-(4-(3-(dimethylamino)propoxy)-3-bromophenethyl)-1H-1,2,3-triazol-4-yl)phenyl)-1H-1,2,3-triazol-1-yl)ethyl)-2-bromophenoxy)-N,N-dimethylpropan-1-amine] | 11.1 | 122 µM | 40.16% | 92.94% | 91.11% | 96.44% | 98.15% | 576.1 | 224.7 µM | 0.5 ± 0.8% | 0.39 ± 0.28 µM | 5.1 ± 1.4% | 3.6 ± 3.8 µM | 18.9 | 293 µM | 15.6 ± 2.9 µM | 5.3 ± 2.5% | 15 ± 3.3 µM | less toxic than TBTO and ZINEB | ≥ 65% | inhibition of the adhesion of bacterial strain TC14 [4]: totally inhibit; activity at 200 µM (Shewanella sp. (TC11) [7]; [16]): 4.6 ± 0.4%; activity at 200 µM (Polaribacter sp. (TC5) [10]): 12.7 ± 5.7%; EC50 (Polaribacter sp. (TC5) [10]): 11 ± 0.3 µM; CC50 (Paracoccus sp. (4M6) [11]): 82.3 µM; IS: LC50/EC50 (selectivity index), 4M6 (Paracoccus sp. (4M6) [11]): 22.9; CC50 [12]: 165 µM; IS: LC50/EC50 (selectivity index), TC8 [12]: 10.9; EC50 compared with TBTO/ZINEB [13]: comparable to that of TBTO and lower than that of ZINEB; inhibition at 200 µM [13, 14]: ≥ 85%
Oc1ccc(CCn2cc(CNCc3cn(CCc4ccc(O)c(Br)c4)nn3)nn2)cc1Br [NT27] |  |  |  |  |  |  |  |  |  | 29.3 ± 7.5% | 59.9 ± 27.2 µM | 27.8 ± 16.3% | 88.3 ± 46.2 µM |  |  |  | 28.9 ± 17% | 80.3 ± 18.9 µM |  | ≥ 65% | 
Oc1ccc(CCn2cc(-c3ccc(-c4cn(CCc5ccc(O)c(I)c5)nn4)cc3)nn2)cc1I [SA43, 1,4 bis (1-(3-iodo-4-hydroxyphenethyl)-1H-1,2,3-triazol-4-yl) benzene] | 5.5 | 320 µM |  |  |  |  |  | 11.4 | 236.9 µM | 6.8 ± 1.2% | 20.7 ± 5.2 µM | 13.6 ± 8.9% | 53.8 ± 50.9 µM | 80.4 | 88.4 µM | 1.1 ± 0.6 µM | 10.5 ± 12% | 30.3 ± 31.3 µM | less toxic than ZINEB | ≥ 65% | activity at 200 µM (Shewanella sp. (TC11) [7]; [16]): 4.6 ± 0.1%; activity at 200 µM (Polaribacter sp. (TC5) [10]): 23.8 ± 0.1%; EC50 (Polaribacter sp. (TC5) [10]): 58 ± 1.61 µM; CC50 (Paracoccus sp. (4M6) [11]): 352 µM; IS: LC50/EC50 (selectivity index), 4M6 (Paracoccus sp. (4M6) [11]): 6.5; CC50 [12]: 270 µM; IS: LC50/EC50 (selectivity index), TC8 [12]: 8.9; EC50 compared with TBTO/ZINEB [13]: comparable to that of ZINEB; inhibition at 200 µM [13, 14]: ≥ 85%
